In US20220178936A1, “A SENSITIVE LC-MS ASSAY TO MEASURE CURCUMINOIDS IN COMPLEX BIOLOGICAL SAMPLES” (THE REGENTS OF THE UNIVERSITY OF CALIFORNIA, priority 2019, published 2022):
Where two headings read alike, the source gives them in different places.

How the values were obtained:
[1] = Curcuminoids in murine tumor, brain and liver after PHRAD 129; conditions: for signal in murine tumor extract: oral PHRAD 129, 100 mg/kg daily
Method: Murine soft tissues. Mouse liver, brain, and tumor samples were collected from animals that had been administered a proprietary turmeric formulation (PHRAD 129, Aveta Biomics, Bedford, Mass.). After dissection, the tissues were weighed, frozen and stored at −80° C.
The samples were homogenized in a bead mill (thrice for 10 seconds each time at RT). The homogenate was vigorously mixed (5 min, RT), centrifuged (16,000 g, 5 min at RT), and the supernatant was transferred to microcentrifuge tubes and dried in a vacuum centrifuge. The dried samples were tightly capped and stored at −80° C.

[2] = in vivo
Method: (§1) Biological samples: Human plasma. […] The tubes were centrifuged (1000 g, 15 min), and plasma was collected and stored at −80° C.
(§2) Extraction of human plasma samples and BF2 complex formation: Plasma samples were prepared in duplicate by transferring aliquots of human plasma (100 uL) to 1.5 mL microcentrifuge tubes. The internal standards (1 pmol d6C and 5 pmol d6TC in 10 uL of methanol) were added to each sample. They were briefly vortexed, then treated with cold 10 mM acetic acid in methanol (1 mL). After rigorous mixing, incubation (4° C., 60 min) and centrifugation (16,000 g, Rt, 5 min) supernatants were transferred to clean microcentrifuge tubes and dried in a vacuum centrifuge. The dried samples were tightly capped and stored in −80° C.
(§3) Analysis of the blood collected at 0, 1, 2, 3, 4, and 5 hours after compound ingestion on Day 1 and 0, 1, 2, 3, and 4 hours on Day 17 was performed.

[3] = BF2-curcuminoid complex stability (hydrolysis, autosampler); type: physicochemical
Method: Complex stability: The BF2-curcumin complexes slowly hydrolyze in water and water/methanol mixtures with a half-life of a few hours at 4° C. For applicability to an LC/MS assay on biological samples containing amounts of curcuminoids as low as 50 fmol/sample, and using an aqueous chromatographic mobile phase, it was necessary to use conditions that minimized hydrolysis. This breakdown was slowed but not averted by storing the samples at even lower temperatures (−80° C.) prior to analysis. The breakdown of the derivatives was averted by performing the reaction in glacial acetic acid and directly injecting the reaction mixture onto the LC column. Even after the injection of hundreds of samples there has been no noticeable deterioration of chromatographic reliability. Furthermore, by using a short 10 minute chromatographic gradient the hydrolysis of the complexes during chromatography was minimized. The stability of BF2-curcuminoid complex was tested to validate the assay for overnight analysis. Eight QC-mid samples were prepared, stored tightly capped to minimize contact with atmospheric moisture in the autosampler at 20° C., and each sample was analyzed every hour for up to seven hours. Except for BF2-TC, the curcuminoid complexes were stable throughout the 7 hour test period with no significant decline in peak intensity (FIG. 4).

[4] = In vivo temporal profile of plasma curcuminoids and metabolites in a human volunteer; conditions: Longvida four tablets daily for 17 consecutive days
Method: as §1, §2, §3

Question: What does the source list for `O=C(C=Cc1ccc(O)cc1)CC(=O)C=Cc1ccc(O[C@@H]2O[C@H](C(=O)O)[C@@H](O)[C@H](O)[C@H]2O)cc1` [BDMCG, bisdemethoxycurcumin glucuronide]?
Answer: signal in mouse brain extract ([1]; mouse, in vivo): not detected; signal in mouse liver extract ([1]; mouse, in vivo): not detected; signal in human plasma extract [2]: intense peaks

Question: For `COc1cc(C=CC2=CC(C=Cc3ccc(O)c(OC)c3)=[O+][B-](F)(F)O2)ccc1O` [BF2-C], which hydrolysis half-life ([3]; water and water/methanol mixtures, 4° C.) is on record?
Answer: a few hours

Question: For `COc1cc(CCC2=CC(CCc3ccc(O)c(OC)c3)=[O+][B-](F)(F)O2)ccc1O` [BF2-TC], which “stability in autosampler (peak intensity)” value ([3]; glacial acetic acid reaction mixture, 20° C., 7 hour test period, QC-mid) is on record?
Answer: slight loss of signal intensity

Question: With `COc1cc(/C=C/C(=O)CC(=O)/C=C/c2ccc(O)c(OC)c2)ccc1O` [Curcumin, curcumin] as the molecule, how does the “signal in mouse brain extract” value ([1]; mouse, in vivo) read?
Answer: measurable peaks

Question: With Demethoxycurcumin as the molecule, how does the “signal in mouse brain extract” value ([1]; after PHRAD 129) read?
Answer: measurable peaks

Question: What about the “signal in mouse liver extract” value ([1]; after PHRAD 129) of the same molecule?
Answer: measurable peaks

Question: What about the “signal in murine tumor extract” value [1] of the same molecule?
Answer: strong signals

Question: Which “signal in mouse liver extract” value ([1]; after PHRAD 129) does the source give for bisdemethoxycurcumin here?
Answer: measurable peaks

Question: And the “signal in murine tumor extract” value [1]?
Answer: strong signals

Question: What does the source list for demethoxycurcumin glucuronide [DMCG]?
Answer: signal in mouse brain extract ([1]; after PHRAD 129): not detected; signal in mouse liver extract ([1]; after PHRAD 129): not detected; signal in murine tumor extract [1]: not detected; signal in human plasma extract [4]: intense peaks

Question: Which “signal in murine tumor extract” value [1] does the source give for tetrahydrocurcumin here?
Answer: strong signals
